Source: patent EP0515684A1, “INHIBITOR OF DENATURED LDL FORMATION” (Chugai Seiyaku Kabushiki Kaisha, priority 1990, dated 1991)

System: rabbit LDL
Assay: Amount of thiobarbituric acid reactive substances (TBARS) formed on Cu2+ oxidation of LDL
Type: biochemical
Conditions: 5 µM of Cu²⁺ added to rabbit LDL, followed by heating
Procedure: The biological properties of the compounds as shown hereinafter were examined by the following methods. • (1) The amount of thiobarbituric acid reactive substances: 5 µM of Cu²⁺ was added to rabbit LDL, prepared by the method reported by Havel et al., followed by heating. Then the antioxidative effect of each compound was examined by using the thiobarbituric acid reactive substances (TBARS) thus formed as the guidance. […] 0.5 ml of an n-butanol solution containing 0.2 µM of MCLA and 10 mM of linoleic acid was introduced into a vial for luminescence analysis and the luminescence due to autoxidation was measured in a thermostat at 37°C. […] To the obtained plasma, were added EDTA-NaN₃ (a 5% solution of pH 7.4) and a benzamidine solution (60 mg/ml) respectively in amounts of 0.8 ml and 0.5 ml per 100 ml of the plasma. Then rabbit or human LDL (1.019 < d < 1.063) was prepared by ultracentrifugation in accordance with the method of Havel et al.*. After performing the ultracentifugation again, the LDL was washed and concentrated. Then it was dialyzed against a 150 mM NaCl - 2 mM Na₂HPO₄ solution at 4°C and KBr was removed. The protein content was determined by Lowry method** and then the LDL was subjected to the subsequent procedure. (Measurement of electrophoretic mobility in agarose gel) 10 µM of Cu²⁺ and a specimen were added to an LDL-containing solution (3.00 µg protein/ml). After incubating at 37°C for approximately 24 hours, a portion (1 µl) thereof was applied onto an agarose gel film (Universal Film, manufactured by Corning Co.) and then subjected to electrophoresis (Agarose Gel Electrophoresis System for Lipoprotein, manufactured by Corning Co.). Thus the mobility was measured by staining lipids with Fat Red 7B. […] After 3 days, peritoneal macrophages were collected from the mouse and incubated in an RPMI 1640 medium containing 10% of FBS. The macrophages were used in the • examination on the next day.

SMILES | Formed TBARS (%) (Compound conc. 10^-5 M, 10 µM) | Formed TBARS (%) (Compound conc. 10^-6 M, 1 µM)
COc1cc(N(C)Cc2ccccc2)cc(OC)c1OC [Compound 2, N-benzyl-N-methyl-3,4,5-trimethoxyaniline] | 31% | 56%
CCN(Cc1ccccc1)c1cc(OC)c(OC)c(OC)c1 [Compound 3, N-benzyl-N-ethyl-3,4,5-trimethoxyaniline] | 35% | 51%
COc1cc(N(CC=C(C)CCC=C(C)C)Cc2ccccc2)cc(OC)c1OC [Compound 8] | 31% | 55%
COc1cc(N(CC=C(C)CCCC(C)CCCC(C)CCCC(C)C)Cc2ccccc2)cc(OC)c1OC (stereo not drawn) [Compound 9] | 57% | 78%
COc1cc(NCc2ccc(C)c(C)c2)cc(OC)c1OC [Compound 10] | 9% | 25%
COc1cc(NCc2ccc(Br)cc2)cc(OC)c1OC [Compound 26] | 12% | 27%
COc1cc(NCc2cccc(Br)c2)cc(OC)c1OC [Compound 27] | 12% | 29%
COc1cc(NCc2ccccc2Br)cc(OC)c1OC [Compound 28] | 13% | 30%
COc1cc(NCc2c(F)c(F)c(F)c(F)c2F)cc(OC)c1OC [Compound 29] | 20% | 39%
COc1cc(N(CCCc2ccccc2)Cc2c(F)c(F)c(F)c(F)c2F)cc(OC)c1OC [Compound 30] | 26% | 57%
COc1cc(CNc2cc(OC)c(OC)c(OC)c2)cc(OC)c1OC [Compound 35] | 28% | 52%
CCCCCCOc1ccc(CNc2cc(OC)c(OC)c(OC)c2)cc1 [Compound 41] | 16% | 63%
CCCCCCCCOc1ccc(CNc2cc(OC)c(OC)c(OC)c2)cc1 [Compound 42] | 19% | 72%
CCCCCCCCCCCCOc1ccc(CNc2cc(OC)c(OC)c(OC)c2)cc1OCCCCCCCCCCCC [Compound 43] | 62% | 94%
COc1cc(NCc2ccccc2OCCC(C)CCCC(C)C)cc(OC)c1OC (stereo not drawn) [Compound 45] | 15% | 80%
COc1cc(NCc2ccccc2OC/C=C(\C)CCC=C(C)C)cc(OC)c1OC [Compound 46] | 13% | 69%
COc1cc(NCc2ccc(OC/C=C(\C)CCC=C(C)C)cc2)cc(OC)c1OC [Compound 47] | 17% | 76%
COc1cc(NCc2ccc(OC/C=C(\C)CCCC(C)CCCC(C)CCCC(C)C)cc2)cc(OC)c1OC (stereo not drawn) [Compound 48] | 40% | 90%
COc1cc(NCc2ccc(OC/C=C(\C)CC/C=C(\C)CCC=C(C)C)cc2)cc(OC)c1OC [Compound 49] | 39% | 78%
COc1cc(NCc2ccccc2SCCC(C)CCCC(C)C)cc(OC)c1OC (stereo not drawn) [Compound 50] | 17% | 70%
COc1cc(NCc2cccc(Oc3ccccc3)c2)cc(OC)c1OC [Compound 51] | 16% | 32%
COc1cc(NCc2ccc(Oc3ccccc3)cc2)cc(OC)c1OC [Compound 52] | 13% | 43%
CCOC(=O)CCCCCCOc1ccc(CNc2cc(OC)c(OC)c(OC)c2)cc1 [Compound 53] | 13% | 38%
COc1cc(NCc2ccc(OCCCCCCC(=O)O)cc2)cc(OC)c1OC [Compound 54] | 16% | 46%
CCOC(=O)C(C)(C)Oc1ccc(CNc2cc(OC)c(OC)c(OC)c2)cc1 [Compound 55] | 20% | 46%
COc1cc(NCc2ccc(OC(C)(C)C(=O)O)cc2)cc(OC)c1OC [Compound 56] | 59% | 77%
COc1cc(NCc2ccc(CNc3cc(OC)c(OC)c(OC)c3)cc2)cc(OC)c1OC [Compound 57] | 12% | 34%
COC(=O)c1ccc(CNc2cc(OC)c(OC)c(OC)c2)cc1 [Compound 60] | 17% | 46%
COc1cc(NCc2ccc([N+](=O)[O-])cc2)cc(OC)c1OC [Compound 64] | 17% | 38%
COc1cc(NCc2ccc(CO)cc2)cc(OC)c1OC [Compound 67] | 35% | 55%
